For assay [1], the system named is Septoria tritici (ATCC 26517). In words: Minimum Inhibitory Concentration (MIC) vs. Septoria tritici. As to conditions: Zymoseptoria tritici, ATCC26517, 168 h; 50% reduction in growth of S. tritici; 22° C., seven days; read-out: Septoria Rating (MIC). The assay is classed as cell-based. As for the experimental part: C. Minimum Inhibitory Concentration (MIC) vs. Septoria tritici Compounds were assessed for their ability to inhibit the growth of a common strain of the fungal plant pathogen Septoria tritici (ATCC 26517) using a procedure based on a Clinical and Laboratory Standards Institute (CLSI) microdilution assay protocol for filamentous fungi. Stock solutions of the test compounds and standards were prepared in DMSO at 6400 μg/mL. Each stock solution was used to prepare a 2-fold dilution series ranging from 16 to 0.016 μg/mL (total of 11 compound concentrations) in RPMI-1640 (Roswell Park Memorial Institute) medium containing 3-(N-morpholino)propanesulfonic acid (MOPS) buffer and 2% DMSO. A 100 μL aliquot of the dilutions was added to columns 1 (16 μg/mL compound) through 11 (0.016 μg/mL compound) of a 96-well microtiter plate. This format was replicated in a second row of the microtiter plate. Thus, each microtiter plate could include 11 concentrations of four test or control compounds replicated twice. A 100 μL aliquot of RPMI-1640/MOPS/2% DMSO medium was added to column 12 (no compound control) of the microtiter plate. A fresh culture of S. tritici was used to prepare a solution of approximately 5×10^4 colony-forming units per milliliter (cfu/mL) in RPMI/MOPS medium without DMSO. A 100 μL aliquot of this solution was added to all 96 wells in the microtiter plate. […] The assay plates were incubated at 22° C. for seven days in the dark without shaking. […] In each case of Table 3, the Septoria rating scale is as follows: […]

Assay [2] has as its system Puccinia recondita tritici = Puccinia triticina. In words: Fungicidal activity vs. leaf rust on wheat plants. Conditions: 50 ppm spray on wheat (Yuma), inoculated the following day, evaluated 7-9 days later; read-out: Puccinia Rating (% Disease Control @ 50 ppm). The assay is classed as in vivo. The text has this: D. Evaluation of Fungicidal Activity Vs. Leaf Rust (Causal Agent Puccinia recondita Tritici=Puccinia triticina; Bayer code PUCCRT). […] Each pot contained 3-8 seedlings. These plants were sprayed until wet with the formulated test compounds. The compounds were formulated at 50 ppm in 10 vol. % acetone plus 90 vol. % Triton X water (deionized water 99.99 wt %+0.01 wt % Triton X100), giving a “formulated test compound.” Formulated test compounds were applied to plants using a turn table sprayer fitted with two opposing air atomization nozzles which delivered approximately 1500 L/ha of spray volume. On the following day, the leaves were inoculated with an aqueous spore suspension of Puccinia recondita tritici and the plants were kept in high humidity overnight to permit spores to germinate and infect the leaf. The plants were then transferred to a greenhouse until disease developed on untreated control plants. Disease severity was evaluated 7-9 days later, depending on the speed of disease development. In each case of Table 3, the Puccinia rating scale is as follows: […]

≈ marks a conversion by molar mass, not a printed value.

The results in this text go back to patent US8748461B2, “Metalloenzyme inhibitor compounds” (Viamet Pharmaceuticals, Inc., priority 2011, dated 2014).

For the molecule `CC(C)COc1ccc(C(F)(F)C(O)(Cn2cnnn2)c2ccc(Cl)cc2F)nc1` (centres unmarked) [Compound 69, 2-(4-Chloro-2-fluorophenyl)-1,1-difluoro-1-(5-isobutoxypyridin-2-yl)-3-(1H-tetrazol-1-yl)propan-2-ol], in assay [1], the MIC (as a rule, the lowest concentration that inhibits growth of the organism) is no more than 0.5 µg/mL. Besides, the pest or weed control at 50 ppm in assay [2] fell in the range of 80 to 100%.

Regarding `COc1ccc(COc2ccc(C(F)(F)C(O)(Cn3cnnn3)c3ccc(F)cc3F)nc2)cc1` (centres unmarked) [Compound 41, 2-(2,4-Difluorophenyl)-1,1-difluoro-1-(5-((4-methoxybenzyl)oxy)pyridin-2-yl)-3-(1H-tetrazol-1-yl)propan-2-ol], the MIC in assay [1] was no more than 0.5 µg/mL. In addition, the pest or weed control at 50 ppm in assay [2] lay within 80 to 100%.

Take `N#Cc1ccc(COc2ccc(C(F)(F)C(O)(Cn3cnnn3)c3ccc(Cl)cc3F)nc2)nc1` (centres unmarked) [Compound 61, 6-(((6-(2-(4-Chloro-2-fluorophenyl)-1,1-difluoro-2-hydroxy-3-(1H-tetrazol-1-yl)propyl)pyridin-3-yl)oxy)methyl)nicotinonitrile]: the minimal inhibitory concentration (MIC) in assay [1] is no more than 0.5 µg/mL. In addition, the pest or weed control at 50 ppm in assay [2] was in the range of 80 to 100%.

On to `OC(Cn1cnnn1)(c1ccc(F)cc1F)C(F)(F)c1ccc(OCC(F)c2ccccc2)cn1` (centres unmarked) [Compound 123, 2-(2,4-difluorophenyl)-1,1-difluoro-1-(5-(2-fluoro-2-phenylethoxy)pyridin-2-yl)-3-(1H-tetrazol-1-yl)propan-2-ol], for which, in assay [1], the MIC is no more than 0.5 µg/mL. For the same molecule, the pest or weed control at 50 ppm in assay [2] is 80 to 100%.

With `OC(Cn1cnnn1)(c1ccc(F)cc1F)C(F)(F)c1ccc(OCC(F)(F)c2ccc(OC(F)F)cc2)cn1` (centres unmarked) [Compound 120, 1-(5-(2-(4-(difluoromethoxy)phenyl)-2,2-difluoroethoxy)pyridin-2-yl)-2-(2,4-difluorophenyl)-1,1-difluoro-3-(1H-tetrazol-1-yl)propan-2-ol], the minimum inhibitory concentration (MIC) in assay [1] was no more than 0.5 µg/mL. The pest or weed control at 50 ppm in assay [2] was 80 to 100%.

Turning to `OC(Cn1cnnn1)(c1ccc(F)cc1F)C(F)(F)c1ccc(Oc2ccc(Cl)cn2)cn1` (centres unmarked) [Compound 95, 1-(5-((5-chloropyridin-2-yl)oxy)pyridin-2-yl)-2-(2,4-difluorophenyl)-1,1-difluoro-3-(1H-tetrazol-1-yl)propan-2-ol], the MIC in assay [1] is no more than 0.5 µg/mL. Further, the pest or weed control at 50 ppm in assay [2] was in the range of 80 to 100%.

Consider `N#Cc1ncc(Oc2ccc(C(F)(F)C(O)(Cn3cnnn3)c3ccc(F)cc3F)nc2)cn1` (centres unmarked) [Compound 100, 5-((6-(2-(2,4-difluorophenyl)-1,1-difluoro-2-hydroxy-3-(1H-tetrazol-1-yl)propyl)pyridin-3-yl)oxy)pyrimidine-2-carbonitrile], for which, in assay [1], the MIC is 0.5 to 1.5 µg/mL (≈ 1.06 to 3.18 µM). Further, the pest or weed control at 50 ppm in assay [2] lay in the range of 60 to 79%.

Turning to `N#Cc1ccc(Oc2ccc(C(F)(F)C(O)(Cn3cnnn3)c3ccc(F)cc3F)nc2)c(F)c1` (centres unmarked) [Compound 89, 4-((6-(2-(2,4-Difluorophenyl)-1,1-difluoro-2-hydroxy-3-(1H-tetrazol-1-yl)propyl)pyridin-3-yl)oxy)-3-fluorobenzonitrile], the MIC in assay [1] was no more than 0.5 µg/mL. For the same molecule, the pest or weed control at 50 ppm in assay [2] was 80 to 100%.

Take `N#Cc1ccc(Oc2ccc(C(F)(F)C(O)(Cn3cnnn3)c3ccc(F)cc3F)nc2)cc1F` (centres unmarked) [Compound 17, 4-((6-(2-(2,4-Difluorophenyl)-1,1-difluoro-2-hydroxy-3-(1H-tetrazol-1-yl)propyl)pyridin-3-yl)oxy)-2-fluorobenzonitrile]: in assay [1], the minimum inhibitory concentration (MIC) was no more than 0.5 µg/mL. The pest or weed control at 50 ppm in assay [2] lay within 80 to 100%.

Take `OC(Cn1cnnn1)(c1ccc(F)cc1F)C(F)(F)c1ccc(Oc2ncc(C(F)(F)F)cn2)cn1` (centres unmarked) [Compound 105, 2-(2,4-difluorophenyl)-1,1-difluoro-3-(1H-tetrazol-1-yl)-1-(5-((5-(trifluoromethyl)pyrimidin-2-yl)oxy)pyridin-2-yl)propan-2-ol]: the minimal inhibitory concentration (MIC) in assay [1] is no more than 0.5 µg/mL. In addition, in assay [2], the pest or weed control at 50 ppm fell in the range of 80 to 100%.

Take `OC(Cn1cnnn1)(c1ccc(F)cc1F)C(F)(F)c1ccc(OCc2ccccn2)cn1` (centres unmarked) [Compound 37, 2-(2,4-Difluorophenyl)-1,1-difluoro-1-(5-(pyridin-2-ylmethoxy)pyridin-2-yl)-3-(1H-tetrazol-1-yl)propan-2-ol]: in assay [1], the minimum inhibitory concentration (MIC) lay in the range of 0.5 to 1.5 µg/mL (≈ 1.09 to 3.26 µM). Besides, the pest or weed control at 50 ppm in assay [2] lay within 80 to 100%.

As to `CC(C)COc1ccc(C(F)(F)C(O)(Cn2cnnn2)c2ccc(F)cc2F)nc1` (centres unmarked) [Compound 43, 2-(2,4-Difluorophenyl)-1,1-difluoro-1-(5-isobutoxypyridin-2-yl)-3-(1H-tetrazol-1-yl)propan-2-ol], the MIC in assay [1] is no more than 0.5 µg/mL. Besides, in assay [2], the pest or weed control at 50 ppm lay within 80 to 100%.

Take `OC(Cn1cnnn1)(c1ccc(F)cc1F)C(F)(F)c1ccc(OCc2ccccc2F)cn1` (centres unmarked) [Compound 46, 2-(2,4-Difluorophenyl)-1,1-difluoro-1-(5-((2-fluorobenzyl)oxy)pyridin-2-yl)-3-(1H-tetrazol-1-yl)propan-2-ol]: in assay [1], the MIC is no more than 0.5 µg/mL. In addition, in assay [2], the pest or weed control at 50 ppm lay in the range of 80 to 100%.

Take `N#Cc1ccc(COc2ccc(C(F)(F)C(O)(Cn3cnnn3)c3ccc(Cl)cc3F)nc2)cc1` (centres unmarked) [Compound 55, 4-(((6-(2-(4-Chloro-2-fluorophenyl)-1,1-difluoro-2-hydroxy-3-(1H-tetrazol-1-yl)propyl)pyridin-3-yl)oxy)methyl)benzonitrile]: the MIC in assay [1] was no more than 0.5 µg/mL. Moreover, the pest or weed control at 50 ppm in assay [2] lay in the range of 80 to 100%.

Consider `COc1cccc(COc2ccc(C(F)(F)C(O)(Cn3cnnn3)c3ccc(F)cc3F)nc2)c1` (centres unmarked) [Compound 34, 2-(2,4-Difluorophenyl)-1,1-difluoro-1-(5-((3-methoxybenzyl)oxy)pyridin-2-yl)-3-(1H-tetrazol-1-yl)propan-2-ol], for which the MIC in assay [1] is no more than 0.5 µg/mL. Moreover, the pest or weed control at 50 ppm in assay [2] fell in the range of 80 to 100%.

`CO/N=C/c1ccc(Oc2ccc(C(F)(F)C(O)(Cn3cnnn3)c3ccc(F)cc3F)nc2)nc1` (centres unmarked) [Compound 102, (E)-6-((6-(2-(2,4-difluorophenyl)-1,1-difluoro-2-hydroxy-3-(1H-tetrazol-1-yl)propyl)pyridin-3-yl)oxy)nicotinaldehyde O-methyl oxime]: the MIC in assay [1] was no more than 0.5 µg/mL. Moreover, the pest or weed control at 50 ppm in assay [2] was in the range of 80 to 100%.

Take `OC(Cn1cnnn1)(c1ccc(F)cc1F)C(F)(F)c1ccc(OCc2ccc(Cl)c(F)c2)cn1` (centres unmarked) [Compound 27, 1-(5-((4-Chloro-3-fluorobenzyl)oxy)pyridin-2-yl)-2-(2,4-difluorophenyl)-1,1-difluoro-3-(1H-tetrazol-1-yl)propan-2-ol]: the MIC in assay [1] was no more than 0.5 µg/mL. The pest or weed control at 50 ppm in assay [2] fell in the range of 80 to 100%.

In the case of `OC(Cn1cnnn1)(c1ccc(F)cc1F)C(F)(F)c1ccc(OCc2cccc(C(F)(F)F)c2)cn1` (centres unmarked) [Compound 26, 2-(2,4-Difluorophenyl)-1,1-difluoro-3-(1H-tetrazol-1-yl)-1-(5-((3-(trifluoromethyl)benzyl)oxy)pyridin-2-yl)propan-2-ol], the minimum inhibitory concentration (MIC) in assay [1] is no more than 0.5 µg/mL. For the same molecule, the pest or weed control at 50 ppm in assay [2] fell in the range of 80 to 100%.

Turning to `N#Cc1cccc(COc2ccc(C(F)(F)C(O)(Cn3cnnn3)c3ccc(F)cc3F)nc2)c1` (centres unmarked) [Compound 52, 3-(((6-(2-(2,4-Difluorophenyl)-1,1-difluoro-2-hydroxy-3-(1H-tetrazol-1-yl)propyl)pyridin-3-yl)oxy)methyl)benzonitrile], the MIC in assay [1] is no more than 0.5 µg/mL. In addition, the pest or weed control at 50 ppm in assay [2] lay in the range of 80 to 100%.
